Where no end group is shown, it is not given here.
Legend:
[1] = cited from earlier work
Method: We examined the effects of five novel Ciona LCAMPs in the presence of NaCl on antimicrobial activity against E. coli. Reflective of the habitat of C. intestinalis, salt resistance was found in all peptides at the concentration of 12.5 μM (Fig. 2).

[2] = system: Escherichia coli (NBRC14237); assay type: cell-based; conditions: for MIC, E. coli (NBRC 14237): NBRC14237; for Antimicrobial activity against Escherichia coli (in words): segments with Na^4vSS less than − 30, Supplementary Fig. S1
Method: (§1) Antimicrobial activities of the peptides were measured as described previously. Synthetic peptides were added to the microbial suspension in the individual wells of a microplate at final concentrations of 3.125, 6.25, 12.5, and 25 μM. The relative activities (RA) were calculated by the equation RA = ((APC − ANC) − ASA)/(APC − ANC), where APC, ANC, and ASA represent the absorbance of positive control, negative control, and samples, respectively. The bacteria and yeast strains used were Escherichia coli (NBRC14237), Staphylococcus aureus (NBRC12732), Pseudomonas aeruginosa (NBRC12582), and Saccharomyces cerevisiae (NBRC10217), which were purchased from Biological Resource Center, National Institute of Technology and Evaluation (NBRC, Tokyo, Japan). The interaction between Ciona LCAMPs and membrane interface was predicted using AmphipaSeek server (https://npsa-pbil.ibcp.fr/cgi-bin/npsa_automat.pl?page=/NPSA/npsa_amphipaseek.html)[28].

[3] = system: Pseudomonas aeruginosa (NBRC12582); assay type: cell-based
Method: as §1

[4] = system: Saccharomyces cerevisiae (NBRC10217); assay type: cell-based
Method: as §1

[5] = system: Staphylococcus aureus (NBRC12732); assay type: cell-based
Method: as §1

bacteria = conditions: in vitro development-resistance studies; cited from earlier work
Description: Antimicrobial peptides are crucial and widespread effector molecules of the innate immune system and are a part of the first line of host defense against invading pathogens[1],[2]. To date, thousands of antimicrobial peptides have been identified from bacteria to mammals and have been classified into several groups on basis of the structure and sequence features[3]–[5]. Of these, linear cationic α-helical antimicrobial peptides (LCAMPs), the genes of which encode short amphipathic peptides without cysteine residues, are the most abundant and widespread in organisms. LCAMPs are known for their ...

| Substance | MIC, E. coli (NBRC 14237) [2] [µM] | MIC, S. cerevisiae (NBRC 10217) [4] [µM] | MIC, S. aureus (NBRC 12732) [5] [µM] | Antimicrobial activity against Escherichia coli (in words) [2] | other results |
| --- | --- | --- | --- | --- | --- |
| ALRSAVRTVARVGRAVLPHVAI [Ci-PAP-A, known salt-resistant LCAMP from C. intestinalis hemocyte EST database] |  |  |  |  | NaCl concentration in the presence of which antimicrobial activity is exhibited [1]: 100 mM |
| KGGKFLNFLKKAAKVGAKVGMAALG [KH.S908.1] | < 3.125 | 6.25 | < 3.125 |  | MIC, P. aeruginosa (NBRC 12582) [3]: 6.25 µM |
| FRRRRRRRRHWHHHHHYHYHHHRRRRRRRRRW [KH.L63.9, cationic amphipathic α-helical segment with Na4vSS less than − 30, synthetic peptide] |  |  |  | no or weak antimicrobial activities |  |
| SRRRFDFSRRRIYVARRRSLAFAHRRR [KH.C7.94] | 6.25 | 6.25 | 6.25 |  |  |
| AERLMRKAAKDHWSNKMAKDVIWWEQ [KH.S930.2, cationic amphipathic α-helical segment with Na4vSS less than − 30, synthetic peptide] |  |  |  | no or weak antimicrobial activities |  |
| RRRRRIAARIGSGVAQTGGELI [KH.C1.365, cationic amphipathic α-helical segment with Na4vSS less than − 30, synthetic peptide] |  |  |  | no or weak antimicrobial activities |  |
| WWLSRRRSSLFYWR [KH.C1.640] | < 3.125 | 12.5 | < 3.125 |  |  |
| TINKKFRWHGKRKWWLRFVKQ [KH.S1531.4] | < 3.125 | 6.25 | < 3.125 |  |  |
| FGRRRRVPGRRRRWWNERAMNEI [KH.S1007.2, cationic amphipathic α-helical segment with Na4vSS less than − 30, synthetic peptide] |  |  |  | no or weak antimicrobial activities |  |
| WRSLGRTLLRLSHALKPLARRSGW [Ci-MAM-A, known salt-resistant LCAMP from C. intestinalis hemocyte EST database] |  |  |  |  | NaCl concentration in the presence of which antimicrobial activity is exhibited [1]: 450 mM |
| pexiganan |  |  |  |  | Potential for induction of bacterial resistance (bacteria): low potential for induction of bacterial resistance |
| KLKTWPKNYWRKVWSKKNWRKFVKKFKHW [KH.S921.1] | < 3.125 |  | < 3.125 |  | MIC, P. aeruginosa (NBRC 12582) [3]: < 3.125 µM |

Reference: publication PMC7387483, “In silico identification and functional validation of linear cationic α-helical antimicrobial peptides in the ascidian Ciona intestinalis” (Scientific Reports, 2020)
